{"source": "patent US20240285501A1", "about": "“HAIR GROWTH AGENT” (ADJUVANT HOLDINGS CO., LTD., priority 2021, published 2024)", "key": {"[1]": {"system": "VEGF gene expression in human dermal papilla cells", "assay": "Evaluation of human dermal papilla cell VEGF gene expression (real-time PCR)", "type": "cell-based", "settings": "72 hours, relative to negative control group, GAPDH internal standard, FIG. 1", "protocol": "The VEGF gene is expressed in dermal papilla cells, and contributes to expression of such effects as increase in hair shaft diameter and improving maximum hair shaft length and improving hair shaft elongation rate and hair shaft growth promotion at head hair, beard, eyebrows, and/or eyelashes. Human dermal papilla cells were therefore used, and evaluation was carried out with respect to increase in VEGF gene expression for the respective components.\nHuman dermal papilla cells (Catalog No. CA60205a; derived from person; Toyobo Co., Ltd. (Japan)) were purchased, testing and evaluation being carried out with maintenance and culture of cells being performed as described in the protocol.\nAs drugs for testing, drug solutions of the following respective concentrations (final concentrations) were prepared and used. • Comparative Example 1: 100 μM adenosine • Working Example 1: 0.3125 μM phytosphingosine • Working Example 2: 1.25 μM phytosphingosine • Working Example 3: Liquid mixture of 100 μM adenosine and 1.25 μM phytosphingosine\nA 24-well plate was seeded with human dermal papilla cells so as to obtain 6×10^3 thereof per well. […] The GAPDH gene was used as an internal standard, the amount of VEGF gene expression being calculated relative to the negative control group. […]\n300 μL of lysis buffer RL was added thereto per well, and the cells were lysed by pipetting. […] Concentration of the recovered RNA was measured using a NanoDrop Lite (Catalog No. ND-LITE; Thermo Fisher Scientific K.K.), and this was stored at −80° C. until the following cDNA creation procedure.\nA FastGene scriptase II cDNA synthesis 5× Ready Mix (Catalog No. NE-LS64; Nippon Genetics Co., Ltd. (Japan)) was used to synthesize cDNA. Dilution with RNase Free Water was carried out so as to cause concentration of total RNA produced in a new tube to be […], 4 μL of FastGene scriptase II cDNA synthesis 5× Ready Mix was added to 16 μL of this sample solution, and this was agitated by vortexing. […]"}, "[2]": {"system": "vascular endothelial growth factor (VEGF) expression in human dermal papilla cells", "settings": "cited from earlier work"}}, "data": [{"smiles": "CCCCCCCCCCCCCC[C@@H](O)[C@@H](O)[C@@H](N)CO", "note": "[Working Example 2, phytosphingosine]", "values": [{"measurement": "change in amount of expression of the VEGF gene", "setting": "[1]", "value": "increase in dosage-dependent fashion in the amount of expression of the VEGF gene as compared with the control group"}]}, {"smiles": "CCCCCCCCCCCCCC[C@@H](O)[C@@H](O)[C@@H](N)CO", "note": "[Working Example 1, phytosphingosine]", "values": [{"measurement": "change in amount of expression of the VEGF gene", "setting": "[1]", "value": "increase in dosage-dependent fashion in the amount of expression of the VEGF gene as compared with the control group"}]}, {"smiles": "Nc1ncnc2c1ncn2[C@@H]1O[C@H](CO)[C@@H](O)[C@H]1O", "note": "[adenosine]", "values": [{"measurement": "expression of vascular endothelial growth factor (VEGF)", "setting": "[2]", "value": "promotes expression of vascular endothelial growth factor (VEGF)"}]}, {"smiles": "CCCCCCCCCCCCCC[C@@H](O)[C@@H](O)[C@@H](N)CO", "note": "[phytosphingosine]", "values": [{"measurement": "change in amount of expression of the VEGF gene", "setting": "[1]", "value": "significantly greater than that which was produced as a result of action of adenosine"}]}]}
